Measurements: patent publication US10500222B2, “Compositions and methods relating to treatment of infection” (Wayne State University, priority 2015, dated 2019)
In brackets after ≈: the same amount, converted by molar mass. Entries after “also recorded” stand apart in the source; their conditions may differ.

Tests used:
P. aeruginosa ATCC 19660 = assay: Bacterial growth and Minimum Inhibitory Concentration (MIC), strain 19660; type: cell-based, Pseudomonas aeruginosa; conditions: for absorbance values of bacterial cultures: vs growth control
[1] = test system: protein levels in P. aeruginosa KEI 1025 infected cornea; assay: ELISA of corneal proteins, KEI 1025 infection; type: in vivo, C57BL/6 (B6) mice; conditions: vs PBS
Procedure: (§1) The left eyes of B6 mice (n=5/group/time) were injected with 5 μl of 2 μg/μl glycyrrhizin (GLY) (Sigma-Aldrich, St. Louis, Mo.) or PBS (control) subconjunctivally, one day before infection. Similar treatment was done using carbenoxolone (CBX) (Sigma-Aldrich, St. Louis, Mo.). All mice were injected intraperitoneally (IP) at 1 and 3 days p.i. with 100 μl of GLY (2 μg/μl) or CBX (1 μg/μl). PBS served as control for all these experiments. In a separate similar experiment mice were treated one day before infection with GLY subconjunctivally and injected intraperitoneally (i.p.) with GLY plus recombinant (r) HMGB1 (1 μg/100 μl) or GLY plus PBS. IP injections were similarly given at 1 and 3 days p.i. In an additional experiment, KEI 1025 infected B6 mice were treated with 5 μl of 2 μg/μl GLY subconjunctivally at 6 hours p.i. and injected intraperitoneally at 1 and 3 days p.i. with 100 μl of GLY (2 μg/μl).
KEI 1025 or ATCC strain 19660 infected GLY or PBS treated, B6 mice (n=5/group/time) were sacrificed at 3 and 5 days p.i. and normal and infected corneas harvested. To quantify IL-1β and CXCL2 proteins, individual corneas were homogenized in 1 ml of 50 mM potassium phosphate buffer (pH 6.0) containing 0.5% HTAB (hexadecyltrimethylammonium bromide, Sigma). To quantify HMGB1, cathelicidin-related antimicrobial peptide (CRAMP), mouse beta defensin 2 (mBD2) and mouse beta defensin 3 (mBD3) protein levels, individual corneas were homogenized in 500 μl of PBS containing 0.1% Tween 20 (Sigma) and protease inhibitors (Roche, Indianapolis, Ind.). Corneal homogenates were centrifuged at 12,000 g for 10 min. A 50 μl aliquot of each supernatant was assayed in duplicate to quantify IL-1β, CXCL2, HMGB1 and mBD2 proteins. A 100 μl aliquot of CRAMP and mBD3 supernatant was assayed in duplicate to quantify corresponding protein levels. Undiluted supernatant aliquots were used to quantify all proteins except CXCL2 (1:2 dilution) and HMGB1 (1:5 dilution). An HMGB1 ELISA kit was purchased from Chondrex Inc., Redmond, Wash. CRAMP, mBD2 and mBD3 ELISA kits were purchased from MyBioSource, Inc., San Diego, Calif. All other ELISA kits were purchased from R&D Systems, Minneapolis, Minn. Assays were run following the manufacturer's instructions. Sensitivities of the assays were: 2.31 […] (mBD3).

[2] = test system: mRNA levels in P. aeruginosa KEI 1025 infected cornea; assay: Real time RT-PCR of cornea, KEI 1025 infection; type: in vivo, C57BL/6 (B6) mice
Procedure: as §1
KEI 1025 or ATCC strain 19660 infected GLY or PBS treated mice were sacrificed at 5 days p.i. and the normal, contralateral (uninfected) and infected cornea was harvested. For each cornea, total RNA was isolated (RNA STAT-60™; Tel-Test, Friendswood, Tex.) according to the manufacturer's instructions. Upon spectrophotometric quantification at 260 nm, 1 μg of each RNA sample was reverse transcribed using Moloney-murine leukemia virus (M-MLV) reverse transcriptase (Invitrogen, Carlsbad, Calif.) to produce a cDNA template for the PCR reaction. cDNA products were diluted 1:25 with diethylpyrocarbonate (DEPC)-treated water. A 2 μl aliquot of diluted cDNA was used for the real-time RT-PCR reaction with Real-Time SYBR® Green/Fluorescein PCR Master Mix (Bio-Rad) and primer concentrations of 10 μM (total 10 μl reaction volume). After a pre-programmed hot start cycle (3 min at 95° C.), the parameters used for PCR amplification were: 15 sec at 95° C. and 60 sec at 60° C. with the cycles repeated 45 times. Optimal conditions for PCR amplification of cDNA were established using routine methods. mRNA levels of HMGB1, RAGE, IL-1β, TLR2, TLR4, CXCL2, TNF-α, NLR family pyrin domain containing 3 (NLRP3), NLR family CARD domain containing 4 (NLRC4), IL-12, TGF-β, IL-10, single Ig IL-1-related receptor (SIGIRR) and interleukin 1 receptor-like 1 (ST2) were tested by real-time RT-PCR (CFX Connect™ Real-Time PCR Detection System; Bio-Rad, Richmond, Calif.). The fold differences in gene expression were calculated after normalization to β-actin and expressed as the relative mRNA concentration+SEM.

[3] = KEI 1025, pretreatment subconj. + IP, 3 days p.i.
[4] = KEI 1025, pretreatment subconj. + IP, 5 days p.i.
[5] = KEI 1025, pretreatment subconj. + IP, infected cornea 5 days p.i., vs PBS

CC1(C)[C@@H](O[C@H]2O[C@H](C(=O)O)[C@@H](O)[C@H](O)[C@H]2O[C@@H]2O[C@H](C(=O)O)[C@@H](O)[C@H](O)[C@H]2O)CC[C@]2(C)[C@H]3C(=O)C=C4[C@@H]5C[C@@](C)(C(=O)O)CC[C@]5(C)CC[C@@]4(C)[C@]3(C)CC[C@@H]12 [GLY, glycyrrhizin]
MIC50 (P. aeruginosa ATCC 19660; Pseudomonas aeruginosa, ATCC19660, strain 19660, 50% decrease in absorbance at 540 nm, 37° C., 18 h): 20 mg/mL (≈ 24.3 mM) | MIC90 (P. aeruginosa ATCC 19660; Pseudomonas aeruginosa, ATCC19660, strain 19660, 90% decrease in absorbance at 540 nm, 37° C., 18 h): 40 mg/mL (≈ 48.6 mM) | Minimum Inhibitory Concentration 50 (MIC50) (P. aeruginosa ATCC 19660; cytotoxic strains): 20 milligrams/milliliter | absorbance values of bacterial cultures (P. aeruginosa ATCC 19660; strain 19660, grown with 10 mg/ml GLY): significantly reduced | absorbance values of bacterial cultures (P. aeruginosa ATCC 19660; strain 19660, grown with 20 mg/ml GLY): significantly reduced | absorbance values of bacterial cultures (P. aeruginosa ATCC 19660; strain 19660, grown with 40 mg/ml GLY): significantly reduced | CXCL2 protein expression [1, 3]: significantly decreased | HMGB1 protein [1, 3]: not 3 days p.i. | IL-1 protein [1, 3]: no different from control values | expression of CRAMP (protein) [1, 3]: upregulated the expression of CRAMP significantly | mBD2 protein [1, 3]: significantly upregulated | mBD3 protein [1, 3]: did not differ significantly | CXCL2 protein expression [1, 4]: significantly decreased | HMGB1 protein [1, 4]: reduced HMGB1 protein significantly | IL-1 protein [1, 4]: significantly decreased | expression of CRAMP (protein) [1, 4]: no difference between groups | mBD2 protein [1, 4]: significantly upregulated | mBD3 protein [1, 4]: did not differ significantly | HMGB1 protein ([1]; normal cornea): did not differ | mBD3 protein ([1]; normal cornea): did not differ significantly | mBD2 protein ([1]; normal, contralateral uninfected eye): higher | expression of CRAMP (protein) ([1]; normal, uninfected cornea): upregulated the expression of CRAMP significantly | CXCL2 mRNA levels [2, 5]: reduced | HMGB1 mRNA levels [2, 5]: significantly reduced; also recorded: significantly decreased | IL-1β mRNA levels [2, 5]: significantly reduced | IL-10 mRNA levels [2, 5]: reduced | IL-12 mRNA levels [2, 5]: only GLY reduced | NLRC4 mRNA levels [2, 5]: only GLY reduced | NLRP3 mRNA levels [2, 5]: reduced | RAGE mRNA levels [2, 5]: reduced RAGE mRNA levels (FIG. 2B) when compared with PBS but not significantly | ST2 mRNA levels [2, 5]: reduced | TGF-β mRNA levels [2, 5]: reduced | TLR2 mRNA levels [2, 5]: significantly reduced | TLR4 mRNA [2, 5]: reduced | TNF-α mRNA levels [2, 5]: reduced by both GLY and CBX, but only GLY (p<0.01) was significant | mRNA levels of the other molecules tested ([2]; normal (uninfected) corneas, among PBS, CBX, GLY groups): no differences | RAGE mRNA levels ([2]; normal (uninfected) corneas, vs PBS): significantly reduced
